# Experimental data reported in paper PMC7139822, “Flumazenil-Insensitive Benzodiazepine Effects in Recombinant αβ and Neuronal GABAA Receptors” (Brain Sciences, 2020).
# Biological target: T1, α1β2 receptor (Rattus norvegicus, UniProt P62813+P63138)
# T1 construct: gene Gabra1; full-length rat subunit cDNAs by RT-PCR from brain mRNA; α in pcDNA3.1(+), β in pIRES2-EGFP (EGFP separate via IRES); HEK293; α:β cDNA 1:1, said to favor 2α:3β pentamer
# Assay: whole-cell patch clamp, HEK293
# Assay type: cell-based
# Settings: 200 µM; positive allosteric modulator, non-classical site; co-applied with 0.1 μmol/L GABA; −60 mV; pH 7.4
# Excerpt: whole-cell patch clamp, HEK293 on α1β2 receptor
# T1 sequence (P62813 28-455): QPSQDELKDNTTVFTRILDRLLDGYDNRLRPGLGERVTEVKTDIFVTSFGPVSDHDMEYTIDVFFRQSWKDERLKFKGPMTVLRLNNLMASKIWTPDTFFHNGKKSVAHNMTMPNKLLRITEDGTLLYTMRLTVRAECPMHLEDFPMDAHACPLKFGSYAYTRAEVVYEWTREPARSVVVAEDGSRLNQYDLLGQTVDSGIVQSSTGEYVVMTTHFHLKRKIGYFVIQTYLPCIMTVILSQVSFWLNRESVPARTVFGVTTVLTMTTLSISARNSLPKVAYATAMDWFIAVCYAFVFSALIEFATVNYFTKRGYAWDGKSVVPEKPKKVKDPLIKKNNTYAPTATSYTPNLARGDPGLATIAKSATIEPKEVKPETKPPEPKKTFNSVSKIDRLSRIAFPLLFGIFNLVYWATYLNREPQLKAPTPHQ
# T1 sequence (P63138 26-474): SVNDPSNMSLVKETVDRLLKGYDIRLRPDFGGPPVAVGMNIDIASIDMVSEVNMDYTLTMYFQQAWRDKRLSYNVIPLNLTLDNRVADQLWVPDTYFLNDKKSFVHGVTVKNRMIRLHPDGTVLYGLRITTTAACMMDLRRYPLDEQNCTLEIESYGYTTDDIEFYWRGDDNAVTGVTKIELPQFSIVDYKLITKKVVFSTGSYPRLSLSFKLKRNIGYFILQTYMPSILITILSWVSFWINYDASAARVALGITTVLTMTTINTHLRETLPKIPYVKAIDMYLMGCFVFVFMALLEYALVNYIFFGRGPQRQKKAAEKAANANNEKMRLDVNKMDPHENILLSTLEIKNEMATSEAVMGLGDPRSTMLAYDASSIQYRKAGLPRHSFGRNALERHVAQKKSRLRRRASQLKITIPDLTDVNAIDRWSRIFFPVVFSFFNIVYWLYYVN
smiles,measurement,value
Cc1ncc2n1-c1ccc(Cl)cc1C(c1ccccc1F)=NC2 [Midazolam],Potentiation of GABA Currents (%) / (Midazolam),171.8 ± 13.8%
